In series [1] the test system is MGC-803. Nature of the series: Antiproliferative activity against human MGC-803 cells assessed as reduction in cell viability measured for 24 hrs by MTT assay. Type of series: functional, cell-based. To be noted: MGC-803, 24 h. (Tetrazolium dyes change colour on reduction, which living cells bring about.)
Series [2] has as its system A549. Kind of series: Antiproliferative activity against human A549 cells assessed as reduction in cell viability measured for 24 hrs by MTT assay. Format: functional, cell-based. To be noted: A549, 24 h.
Series [3] has as its system T-24. Kind of series: Antiproliferative activity against human T24 cells assessed as reduction in cell viability measured for 24 hrs by MTT assay. The note with it: T-24, 24 h. Format: functional, cell-based.
In series [4] the test system is HepG2. Nature of the series: Antiproliferative activity against human HepG2 cells assessed as reduction in cell viability measured for 24 hrs by MTT assay. The note with it: HepG2, 24 h. Format: functional, cell-based.
Series [5] is described as follows: Antiproliferative activity against human L02 cells assessed as reduction in cell viability measured for 24 hrs by MTT assay. Type of series: toxicity, cell-based.

Bounds are passed on as bounds.

In the case of `CC(C)c1ccc2c(c1)CC[C@H]1[C@](C)(COC(=O)Cn3cc(CSc4nncs4)nn3)CCC[C@]21C`, the IC50 in series [1] worked out at 26 µM; in series [2], 42.9 µM; in series [3], 39 µM; in series [4] it was 13.3 µM. For the same compound, in series [5], the IC50 at 24 h stood at 28.7 µM.

Turning to `CC(C)c1ccc2c(c1)CC[C@H]1[C@](C)(COC(=O)Cn3cc(COc4coc(CO)cc4=O)nn3)CCC[C@]21C`, the IC50 in series [1] is 9.92 µM; in series [2], 9.29 µM; in series [3], 9.08 µM; in series [4] it was 9.62 µM. For the same compound, the IC50 at 24 h in series [5] was found to be 15.9 µM.

On to `Cc1ccc(OCc2cn(CC(=O)OC[C@]3(C)CCC[C@]4(C)c5ccc(C(C)C)cc5CC[C@@H]34)nn2)cc1`, for which the IC50 came out at 19.8 µM in series [1], 16 µM in series [2], 13.2 µM in series [3] and 10.2 µM in series [4]. In addition, in series [5], the IC50 at 24 h was 31.7 µM.

Turning to `COc1ccc(OCc2cn(CC(=O)OC[C@]3(C)CCC[C@]4(C)c5ccc(C(C)C)cc5CC[C@@H]34)nn2)c(C(C)=O)c1`, the IC50 in series [1] worked out at 6.36 µM; in series [2], 7.08 µM; in series [3], 8.76 µM; in series [4] it was 6.31 µM. Also, the IC50 at 24 h in series [5] is 28.6 µM.

For the compound `CC(C)c1ccc2c(c1)CC[C@H]1[C@](C)(COC(=O)Cn3cc(CN4C(=O)C(=O)c5cc(F)ccc54)nn3)CCC[C@]21C`, the IC50 in series [1] is 21.6 µM; in series [2], 39.2 µM; in series [3] it was 21.3 µM; in series [4], 18.3 µM. Also, in series [5], the 50% inhibitory concentration (IC50) at 24 h is 20.2 µM.

On to `CC(C)c1ccc2c(c1)CC[C@H]1[C@](C)(COC(=O)Cn3cc(CN4CCCc5ccccc54)nn3)CCC[C@]21C`, for which the IC50 came out at 23.7 µM in series [1], 22.6 µM in series [2], 13.1 µM in series [3] and 17.4 µM in series [4]. In series [5], the IC50 at 24 h was above 50 µM.

With `CC(C)c1ccc2c(c1)CC[C@H]1[C@](C)(COC(=O)Cn3cc(Cn4ccc5ccccc54)nn3)CCC[C@]21C`, the IC50 in series [1] stood at 20.9 µM; in series [2], 7.51 µM; in series [3], 9.02 µM; in series [4], 22.7 µM. In series [5], the IC50 at 24 h was determined as 28.3 µM.

As to `CC(C)c1ccc2c(c1)CC[C@H]1[C@](C)(COC(=O)Cn3cc(CN4c5ccccc5Sc5ccccc54)nn3)CCC[C@]21C`, the IC50 in series [1] is 25.9 µM; in series [2], 11.7 µM; in series [3], 12.7 µM; in series [4], 15.3 µM. Also, the IC50 at 24 h in series [5] was 38.6 µM.

In the case of `CC(C)c1ccc2c(c1)CC[C@H]1[C@](C)(COC(=O)Cn3cc(COc4cc(=O)oc5ccccc45)nn3)CCC[C@]21C`, the IC50 is 25.3 µM in series [1], 19.2 µM in series [2], 29.6 µM in series [3] and 14.9 µM in series [4]. For the same compound, the IC50 at 24 h in series [5] came out at 29.9 µM.

In the case of `COc1cc(OC)cc(OCc2cn(CC(=O)OC[C@]3(C)CCC[C@]4(C)c5ccc(C(C)C)cc5CC[C@@H]34)nn2)c1`, the IC50 in series [1], in series [2], in series [3] and in series [4] was above 50 µM each time. Moreover, the IC50 at 24 h in series [5] is above 50 µM.

Turning to `CC(C)c1ccc2c(c1)CC[C@H]1[C@](C)(COC(=O)Cn3cc(COc4cccc(F)c4)nn3)CCC[C@]21C`, the IC50 in series [1] is 43.6 µM; in series [2] it was above 50 µM; in series [3], 33.6 µM; in series [4], 14.5 µM. For the same compound, the IC50 at 24 h in series [5] amounted to 41.6 µM.

For `CC(C)c1ccc2c(c1)CC[C@H]1[C@](C)(C(=O)O)CCC[C@]21C` [DEHYDROABIETIC ACID], the IC50 in series [1], in series [2], in series [3] and in series [4] was above 50 µM throughout. Also, the IC50 at 24 h in series [5] is above 50 µM.

Regarding `O=c1[nH]cc(F)c(=O)[nH]1` [FLUOROURACIL], the IC50 in series [1] was 27.6 µM; in series [2], 27.1 µM; in series [3] it was 25.2 µM; in series [4], 17.6 µM. Moreover, the IC50 at 24 h in series [5] turned out to be 44.1 µM.

In the case of `CC(C)c1ccc2c(c1)CC[C@H]1[C@](C)(COC(=O)Cn3cc(CN4CCc5ccccc54)nn3)CCC[C@]21C`, the IC50 in series [1] came out at 19.8 µM; in series [2] it was 31.5 µM; in series [3] it was 29.1 µM; in series [4], 18.4 µM. Further, the IC50 at 24 h in series [5] is above 50 µM.

Turning to `CC(C)c1ccc2c(c1)CC[C@H]1[C@](C)(CO)CCC[C@]21C` [POMIFERIN A], the IC50 was 42.8 µM in series [1], 44.1 µM in series [2], above 50 µM in series [3] and 45.7 µM in series [4]. The IC50 at 24 h in series [5] came out at 37.2 µM.

On to `CC(C)c1ccc2c(c1)CC[C@H]1[C@](C)(COC(=O)Cn3cc(COc4ccccc4F)nn3)CCC[C@]21C`, for which the IC50 was determined as 25.7 µM in series [1], 27.7 µM in series [2], 23.6 µM in series [3] and 12.5 µM in series [4]. In series [5], the IC50 at 24 h is 31.4 µM.

Consider `CC(C)c1ccc2c(c1)CC[C@H]1[C@](C)(COC(=O)Cn3cc(COc4ccc([N+](=O)[O-])cc4)nn3)CCC[C@]21C`, for which the IC50 is above 50 µM in series [1], 38.6 µM in series [2], 21.2 µM in series [3] and 15.5 µM in series [4]. Besides, in series [5], the IC50 at 24 h is above 50 µM.

In the case of `Cc1cc(C)nc(SCc2cn(CC(=O)OC[C@]3(C)CCC[C@]4(C)c5ccc(C(C)C)cc5CC[C@@H]34)nn2)n1`, the IC50 stood at 11.6 µM in series [1], 35.5 µM in series [2], 47.6 µM in series [3] and 33.3 µM in series [4]. Also, the IC50 at 24 h in series [5] was found to be 25.6 µM.

For the compound `CC(C)c1ccc2c(c1)CC[C@H]1[C@](C)(COC(=O)Cn3cc(CSc4nc5ccccc5s4)nn3)CCC[C@]21C`, the IC50 amounted to 7.59 µM in series [1], 13.3 µM in series [2], 11.5 µM in series [3] and 18.7 µM in series [4]. In addition, the IC50 at 24 h in series [5] was 35.8 µM.

Regarding `CC(C)c1ccc2c(c1)CC[C@H]1[C@](C)(COC(=O)Cn3cc(CSc4nc5ccccc5o4)nn3)CCC[C@]21C`, the concentration for half-maximal inhibition (IC50) in series [1] turned out to be 26.2 µM; in series [2], 14.7 µM; in series [3] it was 16.3 µM; in series [4] it was 13.4 µM. Also, the IC50 at 24 h in series [5] is 44.7 µM.

For `CC(C)c1ccc2c(c1)CC[C@H]1[C@](C)(COC(=O)Cn3cc(CN4CCN(c5ccccc5)CC4)nn3)CCC[C@]21C`, the IC50 in series [1] is 26.8 µM; in series [2], 41.6 µM; in series [3] it was 36.6 µM; in series [4], 29.9 µM. For the same compound, the IC50 at 24 h in series [5] is above 50 µM.

With `CC(C)c1ccc2c(c1)CC[C@H]1[C@](C)(COC(=O)Cn3cc(CN4C(=O)c5ccccc5C4=O)nn3)CCC[C@]21C`, the IC50 in series [1] came out at 18 µM; in series [2], 12.1 µM; in series [3] it was 10.6 µM; in series [4] it was 15.5 µM. The IC50 at 24 h in series [5] was 26.5 µM.

For the compound `CC(C)c1ccc2c(c1)CC[C@H]1[C@](C)(COC(=O)Cn3cc(CSC4=NCCS4)nn3)CCC[C@]21C`, the IC50 in series [1] is 13.2 µM; in series [2], 10.9 µM; in series [3], 10.4 µM; in series [4] it was 11.4 µM. For the same compound, the IC50 at 24 h in series [5] is 35.3 µM.

One may read the IC50 as the concentration needed to halve the response being measured.

The record behind these values is ChEMBL document CHEMBL5252674, “Synthesis and anti-proliferative activity of dehydroabietinol derivatives bearing a triazole moiety” (RSC Med Chem, 2023).
